Reference: PubChem BioAssay (NCI)
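Protocol summary: plate cells (96-well), add compound at 5 concentrations, incubate 48 h, interpolate endpoints linearly. At the GI50, growth is halved. At the TGI there is no net growth.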

Key:
Assay in all cases: NCI-60 cell line screen, 48 h
SW-620 colon = tested on: SW-620 colon
MDA-MB-231 breast = tested on: MDA-MB-231 breast
HOP-62 NSCLC = tested on: HOP-62 NSCLC
SNB-78 CNS = tested on: SNB-78 CNS
KM12 colon = tested on: KM12 colon
K-562 leukemia = tested on: K-562 leukemia
OVCAR-8 ovarian = tested on: OVCAR-8 ovarian
OVCAR-4 ovarian = tested on: OVCAR-4 ovarian
A549 NSCLC = tested on: A549 NSCLC
DLD-1 colon = tested on: DLD-1 colon
M19-MEL melanoma = tested on: M19-MEL melanoma
DMS 273 small cell lung = tested on: DMS 273 small cell lung

SMILES	TGI (SW-620 colon)	TGI (MDA-MB-231 breast)	TGI (HOP-62 NSCLC)	TGI (SNB-78 CNS)	TGI (KM12 colon)	TGI (K-562 leukemia)	TGI (OVCAR-8 ovarian)	TGI (OVCAR-4 ovarian)	TGI (A549 NSCLC)	TGI (DLD-1 colon)	TGI (M19-MEL melanoma)	TGI (DMS 273 small cell lung)	GI50 (OVCAR-4 ovarian)	GI50 (SW-620 colon)	GI50 (MDA-MB-231 breast)	GI50 (HOP-62 NSCLC)	GI50 (KM12 colon)	GI50 (K-562 leukemia)	GI50 (OVCAR-8 ovarian)	GI50 (A549 NSCLC)
CC[C@]12C=CCN3CCC4(c5cc([C@@]6(C(=O)OC)CC7CN(CCc8c6[nH]c6ccccc86)CC6CCCCC67)c(OC)cc5N(C)C4[C@](O)(C(=O)OC)C1OC(C)=O)[C@@H]32 (some centres not stated)	15.6 µM	0.0655 µM	6.07 µM	18.8 µM	15.7 µM	> 21.7 µM	0.747 µM	18.3 µM	12.6 µM	13.2 µM	17.6 µM									
Cc1cc(-c2cc(C(C)(C)C)c(O)c(C(C)(C)C)c2)c(C)cc1-c1cc(C(C)(C)C)c(O)c(C(C)(C)C)c1	> 100 µM	> 100 µM	> 100 µM		> 100 µM	> 100 µM	> 100 µM	> 100 µM	> 100 µM											
C[C@H]1[C@H](C)CC[C@]2(C(=O)OC3OC(CO)C(O)C(O)C3O)CC[C@]3(C)C(=CC[C@@H]4[C@@]5(C)C[C@@H](O)[C@@H]6OC(=O)c7cc(O)c(O)c(O)c7-c7c(cc(O)c(O)c7O)C(=O)OC[C@@]6(CO)[C@@H]5CC[C@]43C)[C@H]12 (some centres not stated)	> 67 µM	37 µM	> 100 µM		> 100 µM	78.5 µM	> 100 µM	75.3 µM	> 100 µM											
O=C1C=CC(=O)c2c(O)c(N3CCC[C@@H]3CO)c(Cl)c(O)c21	3.42 µM	4.03 µM	3.06 µM		3.16 µM	2.22 µM	4.13 µM	3.16 µM	4.19 µM											
CCCn1cc2c3c(cccc31)C1C=C(C)CN(C)C1C2 (configuration not stated)	62.4 µM		67.2 µM	73.4 µM	58 µM	22.6 µM	66.5 µM	29.8 µM	70.5 µM	54.3 µM		47.3 µM								
O=C1CSC(c2c[nH]c3ccccc23)N1c1ccc(Cl)cc1Cl (configuration not stated)	> 100 µM	> 100 µM	> 100 µM		> 100 µM	> 100 µM	> 100 µM	> 100 µM	> 100 µM											
CN(C)CCNCCCNc1c2ccccc2nc2cccc([N+](=O)[O-])c12	1.34 µM	0.0832 µM	0.154 µM		0.111 µM	< 0.0184 µM	0.0532 µM	0.0208 µM	0.0999 µM											
C=C1[C@@H]2CCC3[C@]4(C)C(CC[C@@]5(C)C(=O)O[C@H](O)[C@@H]45)[C@H](O)[C@]3(C2)[C@H]1OC1OC(CO)C(O)C(O)C1O (some centres not stated)	> 50 µM	> 50 µM	> 50 µM		> 50 µM	> 50 µM	> 50 µM	> 50 µM	> 50 µM											
Cc1nc2c(=O)n(-c3ccccc3)c(=O)n(-c3ccccc3)c2o1	> 100 µM	> 100 µM	> 100 µM		> 100 µM	> 100 µM	> 100 µM	> 100 µM	> 100 µM											
c1cncc(CSc2nc3ccccc3nc2-c2cccs2)c1	> 100 µM		> 100 µM	> 100 µM	> 100 µM	> 100 µM	> 100 µM	> 100 µM	> 100 µM	> 100 µM	> 100 µM	> 100 µM								
CC(C)=CCC[C@@H](C)C1=C(Nc2ccccc2F)C(O)=C(C)C(=O)C1=O	> 69.1 µM	> 100 µM	> 72.1 µM		19.4 µM	> 100 µM	> 30.2 µM	> 100 µM	> 44.9 µM											
C[As+](C)(c1ccc(Br)c([N+](=O)[O-])c1)c1ccc(Br)c([N+](=O)[O-])c1.O=[N+]([O-])O	> 100 µM	> 100 µM	> 100 µM		> 100 µM	> 100 µM	> 100 µM	> 100 µM	> 100 µM											
Cc1cc(-c2ccccc2)nc2oc(=O)n(C)c12	> 100 µM	> 100 µM	> 100 µM		> 100 µM	> 100 µM	> 100 µM	> 100 µM	> 100 µM											
NC(=O)C1CCN(Cc2c(Cl)c(Cl)c(CN3CCC(C(N)=O)CC3)c(Cl)c2Cl)CC1	> 100 µM	96 µM	39.7 µM		> 100 µM	> 100 µM	> 100 µM	> 100 µM	> 100 µM											
C=CN(C=C)C(=O)Cn1cc(-c2ccccc2)nn1	> 100 µM	> 100 µM	> 100 µM		> 100 µM	> 100 µM	> 100 µM	> 100 µM	> 100 µM											
O=C(c1ccc([N+](=O)[O-])cc1)N1CCCC1	> 100 µM	> 100 µM	> 100 µM		> 100 µM	> 100 µM	> 100 µM	> 100 µM	> 100 µM											
Cc1c(C(=O)NNc2ccccc2)n2c(=S)[nH]nc2c2ccccc12	> 100 µM	> 100 µM	> 100 µM		> 100 µM	> 100 µM	> 100 µM	> 100 µM	> 100 µM											
CCn1ncc2c(=O)n3ncn(-c4ccc(Br)cc4)c3nc21	> 100 µM	> 100 µM	> 100 µM		> 100 µM	> 100 µM	> 100 µM	> 100 µM	> 100 µM											

SMILES	TGI (SW-620 colon)	TGI (MDA-MB-231 breast)	TGI (HOP-62 NSCLC)	TGI (SNB-78 CNS)	TGI (KM12 colon)	TGI (K-562 leukemia)	TGI (OVCAR-8 ovarian)	TGI (OVCAR-4 ovarian)	TGI (A549 NSCLC)	TGI (DLD-1 colon)	TGI (M19-MEL melanoma)	TGI (DMS 273 small cell lung)	GI50 (OVCAR-4 ovarian)	GI50 (SW-620 colon)	GI50 (MDA-MB-231 breast)	GI50 (HOP-62 NSCLC)	GI50 (KM12 colon)	GI50 (K-562 leukemia)	GI50 (OVCAR-8 ovarian)	GI50 (A549 NSCLC)
COc1ccc2c(c1OC)C(=O)N1C2=Cc2c(cc3c(c2OC)OCO3)CC1N(C)C (configuration not stated)	> 100 µM	> 100 µM	> 100 µM		> 100 µM	> 100 µM	> 100 µM	> 100 µM	> 100 µM											
CC1(C)OCC(C2OC(C)(C)OC2[C@H]2O[C@@]3(O)[C@H]4[C@H](C=CC[C@@H]42)[C@@H](OCc2ccccc2)[C@H](OCc2ccccc2)[C@H]3OCc2ccccc2)O1 (some centres not stated)	> 100 µM	> 100 µM	> 100 µM		> 100 µM	> 100 µM	> 100 µM	> 100 µM	> 100 µM											
O=C([C@H](O)[C@@H](O)c1cccc(Cl)c1)C12CC3CC(CC(C3)C1)C2	> 45 µM	5.44 µM	7.9 µM		6.01 µM	> 100 µM	4.69 µM	7.49 µM	5.25 µM											
N#C/C(C(=O)NCc1ccccc1)=C(/N)N1CCCC1	> 100 µM	> 100 µM	> 100 µM		> 100 µM	> 100 µM	> 100 µM	> 100 µM	> 100 µM											
c1ccc2c(c1)cc1ccc3cccc4ccc2c1c34	> 100 µM	> 100 µM	> 100 µM		> 100 µM	> 100 µM	> 100 µM	> 100 µM	> 100 µM				> 100 µM							
C/C(=C\CSCC(N)C(=O)O)CC/C=C(\C)CNc1ccccc1 (configuration not stated)	> 100 µM	> 100 µM	> 100 µM		> 100 µM	> 100 µM	> 100 µM	> 100 µM	> 100 µM											
COc1ccc([C@]23CCC4(OCC(C)(C)CO4)[C@H]4CON(O[C@H](O[C@@H]5CCCCC5C(C)(C)c5ccccc5)C2)[C@@H]43)cc1OC (some centres not stated)	> 100 µM	> 100 µM	> 100 µM		> 100 µM	> 100 µM	> 100 µM	> 100 µM	> 100 µM											
CCc1nc2c(c(N(C)C)c1C(=O)OC)CCc1ccccc1-2	> 100 µM	87.8 µM	63.5 µM		> 100 µM	77.3 µM	> 100 µM	> 100 µM	> 100 µM											
CCN(CC)CCCCNc1c2ccc(Cl)cc2nc2ccc(OC)cc12	2.12 µM	2.11 µM	2.89 µM		2.61 µM	3.56 µM	3.35 µM	2.44 µM	2.58 µM				0.364 µM	0.277 µM	0.478 µM	0.401 µM	0.456 µM	0.578 µM	0.406 µM	0.367 µM
Clc1ccc(/C(=C/c2ccccc2)Cn2ccnc2)cc1	> 100 µM	> 100 µM	> 100 µM		> 100 µM	> 100 µM	> 100 µM	> 100 µM	> 100 µM											
O=c1c2c3c(sc2nc2n1N=C(c1ccc(Br)cc1)CS2)CCCC3	> 100 µM	> 100 µM	> 100 µM		> 100 µM	> 100 µM	> 100 µM	> 100 µM	> 100 µM											
CC1=C(C(=O)OCCO[N+](=O)[O-])C(c2ccccc2[N+](=O)[O-])C(C(=O)OC(C)C)=C(C)N1 (configuration not stated)	39.9 µM	29 µM	33.8 µM		28.1 µM	> 100 µM	63.7 µM	52.3 µM	41.9 µM											
CCC1(CC)C(=O)N(C(=O)c2cc(OC)c(OC)c(OC)c2)N(C(=O)c2cc(OC)c(OC)c(OC)c2)C1=O	> 50 µM	> 50 µM	> 50 µM		> 50 µM	> 50 µM	> 50 µM	> 50 µM	> 50 µM											
CCOC(=O)[C@@H](Cc1ccc(CCl)cc1)NC(C)=O	> 100 µM	81.6 µM	75.1 µM		40.5 µM	> 100 µM	> 100 µM	41.1 µM	> 100 µM											
CSc1ccc(/C=C2\N=C(c3ccccc3)N(c3nc4cc(Cl)c(F)cc4s3)C2=O)cc1	> 100 µM	> 100 µM	98.7 µM		> 100 µM	> 100 µM	51.7 µM	82.7 µM	> 100 µM											
NC(=O)NN=C1Cc2ccccc2C1	> 100 µM	> 100 µM	> 100 µM		> 100 µM	> 100 µM	> 100 µM	> 100 µM	> 100 µM											
O=c1c2ccc(Cl)cc2oc2c(CNc3ccc(S(=O)(=O)Nc4ncccn4)cc3)cccc12	> 100 µM	> 100 µM	> 100 µM		> 100 µM	> 100 µM	> 100 µM	> 100 µM	> 100 µM											
